Columns and labels:
[1] = tested on: orthotopic TRAMP-C2 prostate tumors; assay: Tumor volume by MRI in orthotopic TRAMP-C2 prostate model during iron chelation therapy; format: in vivo, C57BL/6 mice; conditions: 150 mg/kg, 5 days/week oral gavage; long dose duration (12 weeks); syngeneic hosts; n=10, p<0.001
Source text: (§1) Chelation of iron(III) has been proposed as a cancer treatment that causes reductions in tumor growth, presumably by reducing bioavailability of iron(III) to the cancer cells. However, no studies have addressed the possibility that chelation modulates TAM infiltration contributing to these anti-tumor effects. In order to investigate anti-tumor effects of iron chelation, FeMRI is used, as described herein, to monitor tumor growth in two mouse models. The faster growing MycCaP model and the slower growing TRAMP-C2 model were studied and contrasted to evaluate the effect of dose duration. Immune-competent, syngeneic murine FVB/N and C57BL/6 hosts underwent orthotopic prostatic injections of 5×10^4 cells (MycCaP and TRAMP-C2, respectively), and thereafter received either sham (H2O) or DFP (150 mg/kg, 5 days/week) by oral gavage until average primary tumor burden exceeded 1 cm^3 (determined by MM) in the treated group. […] At long dose durations (12 weeks) there was no growth of TRAMP-C2 orthotopic tumors implanted in syngeneic hosts (FIG. 3A, n=10, *p<0.001). […] (FIG. 3D, n=10, *p<0.05). […] Further, the ability to monitor TAM dynamics serially using FeMRI represents a technique that has translational use, bypassing the necessity for using invasive biopsy to obtain similar measures of stromal response to therapy.

[2] = tested on: high-iron(III)+ CD68+ TAMs in MycCaP tumors; assay: Whole slice histology (Prussian Blue iron(III), CD68) of TAM infiltration in MycCaP tumors; format: in vivo, FVB/N mice
Source text: In order to further quantify these low- and high-[iron(III)] sub-populations, quantitative histology was used. […] In low-iron(III)^+ regions, prostate cancer cells were found sparsely studded with ferritin particles less than 1 μm^2 (at an approximate density of 1000 ferritin particles/field; no CD68^+ macrophages were observed (FIG. 2F, 2G n=18 fields, n=6 mice). In high-iron(III)^+ regions CD68^+ TAMs were found bearing dense hemosiderin deposits in groups of approximately 24 macrophages/TAM cluster (FIG. 2F, 2G, n=18 fields, n=6 mice). With these histological findings, it was possible to estimate the per-pixel TAM number in high-[iron(III)] MRI clusters at approximately 6 macrophages/pixel. To quantify the extent of infiltration of these TAM clusters, an image-processing algorithm was developed in-house with Matlab and ImageJ. […] Immune-competent, syngeneic murine FVB/N and C57BL/6 hosts underwent orthotopic prostatic injections of 5×10^4 cells (MycCaP and TRAMP-C2, respectively), and thereafter received either sham (H2O) or DFP (150 mg/kg, 5 days/week) by oral gavage until average primary tumor burden exceeded 1 cm^3 (determined by MM) in the treated group. […]

[3] = tested on: high-[iron(III)] TAM clusters in MycCaP tumors; assay: FeMRI measurement of high-[iron(III)] TAM clusters in MycCaP tumors; format: in vivo, FVB/N mice
Method: TAM clusters was measured by FeMRI at each week of treatment as a function of percent infiltration in MycCaP tumors. […] These low-[iron(III)] and high-[iron(III)] populations were mapped by thresholding the tumor Fe[(III)] distribution in these ranges on the FeMRI. The low-[iron(III)] map consisted of dense pixel clusters distributed throughout the tumor, while the high-[iron(III)] map contained sparse clusters with average cluster size of approximately 4 MRI pixel^2≈0.05 mm^2 primarily at the outer tumor margins (n=10 mice). To quantify the extent of infiltration of these TAM clusters, an image-processing algorithm was developed in-house with Matlab and ImageJ. This tool is based on concentric rake sampling that identifies […] CD68^+ or high-[iron(III)] colonies and maps them as a function of % infiltration into the tumor (inset FIG. 2J, […] outer edge, 100% tumor center) for arbitrarily sized histological (FIG. 2J, left […]) regions of interest. […] Immune-competent, syngeneic murine FVB/N and C57BL/6 hosts underwent orthotopic prostatic injections of 5×10^4 cells (MycCaP and TRAMP-C2, respectively), and thereafter received either sham (H2O) or DFP (150 mg/kg, 5 days/week) by oral gavage until average primary tumor burden exceeded 1 cm^3 (determined by MM) in the treated group. […]

[4] = tested on: orthotopic MycCaP prostate tumors; assay: Tumor volume by MRI in orthotopic MycCaP prostate model during iron chelation therapy; format: in vivo, FVB/N mice; conditions: 150 mg/kg, 5 days/week oral gavage; two weeks of gavage beginning one-week post-implantation at 100 mm^3; vs sham (H2O); n=10, p<0.05
Source text: as §1

In the case of `Cc1c(O)c(=O)ccn1C` [DFP, deferiprone], the tumor growth [1] is reported as “no growth”, the “histological TAM infiltration profile” value ([2]; MycCaP tumor at week 3 of treatment, vs untreated group, p<0.05) is reported as “less TAMs than the untreated group” and the “high-iron(III)+ and CD68+ positive cells (histological analysis)” value ([2]; MycCaP tumors, 150 mg/kg oral gavage, data not shown) is reported as “reduced”. For the same molecule, the “rates of TAM infiltration” value ([3]; derived from changes of FeMRI infiltration profiles over time, n=10, p<0.05) was “reduced”, the “FeMRI measurements of TAMs” value ([3]; over the full course of treatment) was “showed reductions” and the “smaller tumor volumes by the endpoint of the study” value [4] was 40%.
